Assay results reported in patent US4237140A, “Analgesic mixture of nalbuphine and acetaminophen” (E. I. Du Pont de Nemours and Company, priority 1979, dated 1980).
Structures can show the parent of a compound that is named as a salt.

Tested on: phenyl-p-benzoquinone induced writhing in mice
Test: mouse antiphenylquinone writhing test (oral analgesic activity)
Settings: for ED50: Mus musculus, po, 5 min; for peak time for analgesia: preliminary experiment, drug alone
Description: Male CF1 mice obtained from Charles River Breeding Laboratories, fasted for 16-22 hours, and weighing 18-22 g at the time of testing are used throughout. All mice are dosed orally with acetaminophen and/or nalbuphine (calculated as the hydrochloride salt) dissolved completely in distilled water containing as vehicle 2% by volume of Tween 80®, a pharmacological dispersant manufactured by Fisher Scientific Company and containing 100% polysorbate 80. A dosing volume of 20 ml/kg is used. All doses are coded and the test is performed under a code not known to the observer.
Mice, intubated with various doses of nalbuphine HCl, acetaminophen, combined doses of nalbuphine.HCl and acetaminophen, or vehicle, are injected intraperitoneally with a challenge dose of phenyl-p-benzoquinone.The phenyl-p-benzoquinone is prepared as a 0.1 mg/ml solution in 5% by volume of ethanol in water; the writhing dose is 1.25 mg/kg injected at the rate of 0.25 ml/20 g. For scoring purposes a "writhe" is indicated by whole body stretching or contraction of the abdomen: mice are observed 10 minutes for the presence or absence of writhing beginning 5 minutes after receiving the phenyl-p-benzoquinone dose. Each mouse is used only once, then discarded.
Initially the time of peak activity is determined separately for each drug in the antiphenylquinone writhing test. Then several doses of each drug alone and in precise nalbuphine.HCl/acetaminophen ratios are given orally at or near the time of peak analgesic effects.
All ED50 values are determined numerically by the moving average method of Thompson (W. F. Thompson: Bacteriological Rev. 11, 115-145, 1947) and 95% confidence limits are calculated according to the method of Litchfield and Wilcoxon (J. T. Litchfield, Jr. and F. Wilcoxon: J. Pharm. Exp. Ther. 96, 99-113, 1949).

| Structure (SMILES) | ED50 | ED50 AT 5 MIN., Acetaminophen (Table 1, oral, acetaminophen component dose (alone or in combination), 95% confidence limits printed on adjacent line) | % MICE BLOCKED (oral, nalbuphine.HCl 0, acetaminophen 29.8 mg/kg) | % MICE BLOCKED (oral, nalbuphine.HCl 0, acetaminophen 59.5 mg/kg) | % MICE BLOCKED (oral, nalbuphine.HCl 0, acetaminophen 238 mg/kg) | peak time for analgesia (oral) | ED50 AT 5 MIN., Nalbuphine . HCl (Table 1, oral, nalbuphine.HCl component dose (alone or in combination), 95% confidence limits printed on adjacent line) | % MICE BLOCKED (oral, nalbuphine.HCl 1.9 mg/kg, acetaminophen 0) | % MICE BLOCKED (oral, nalbuphine.HCl 3.8 mg/kg, acetaminophen 0) | % MICE BLOCKED (oral, nalbuphine.HCl 7.6 mg/kg, acetaminophen 0) | % MICE BLOCKED (oral, nalbuphine.HCl 15.2 mg/kg, acetaminophen 0) | % MICE BLOCKED (oral, nalbuphine.HCl 30.4 mg/kg, acetaminophen 0) |
| --- | --- | --- | --- | --- | --- | --- | --- | --- | --- | --- | --- | --- |
| CC(=O)Nc1ccc(O)cc1 [Acetaminophen, N-(4-hydroxyphenyl)acetamide] | 119 mg/kg | 151 mg/kg | 20% | 23% | 55% | 5 min | – | – | – | – | – | – |
| Oc1ccc2c3c1O[C@H]1[C@@H](O)CC[C@@]4(O)[C@@H](C2)N(CC2CCC2)CC[C@]314 [Nalbuphine . HCl, (-)-17-(cyclobutylmethyl)-4,5α-epoxymorphinan-3,6α, 14-triol] | 7.6 mg/kg | – | – | – | – | 5 min | 8.58 mg/kg | 10% | 23% | 50% | 63% | 90% |
